Structures can show the parent of a compound that is named as a salt.
Tests used:
Rattenherzen = settings: isolated rat hearts; Eur. Heart J. 9 (suppl. 1): 167 (1988); cited from earlier work
Na⁺/H⁺-Exchanger = target: T1, Na⁺/H⁺-Exchanger (Oryctolagus cuniculus, UniProt P23791); experiment: Inhibition of the Na+/H+ exchanger of rabbit erythrocytes (amiloride-sensitive Na+ influx, flame photometry); format: cell-based, Kaninchen; settings: Kaninchenerythrocyten; hyperosmolar salt-sucrose medium, pH 7,4, 37°C; rabbits on 2% cholesterol diet; read-out: IC₅₀
T1 construct: den Na⁺-Influx in die Erythrocyten via Na⁺/H⁺-Austausch flammenphotometrisch bestimmen zu können; from tissue; host or cells: Erythrocytes in whole blood from ear arteries of cholesterol-fed White New Zealand rabbits (Ivanovas)
T1 sequence (P23791 whole entry): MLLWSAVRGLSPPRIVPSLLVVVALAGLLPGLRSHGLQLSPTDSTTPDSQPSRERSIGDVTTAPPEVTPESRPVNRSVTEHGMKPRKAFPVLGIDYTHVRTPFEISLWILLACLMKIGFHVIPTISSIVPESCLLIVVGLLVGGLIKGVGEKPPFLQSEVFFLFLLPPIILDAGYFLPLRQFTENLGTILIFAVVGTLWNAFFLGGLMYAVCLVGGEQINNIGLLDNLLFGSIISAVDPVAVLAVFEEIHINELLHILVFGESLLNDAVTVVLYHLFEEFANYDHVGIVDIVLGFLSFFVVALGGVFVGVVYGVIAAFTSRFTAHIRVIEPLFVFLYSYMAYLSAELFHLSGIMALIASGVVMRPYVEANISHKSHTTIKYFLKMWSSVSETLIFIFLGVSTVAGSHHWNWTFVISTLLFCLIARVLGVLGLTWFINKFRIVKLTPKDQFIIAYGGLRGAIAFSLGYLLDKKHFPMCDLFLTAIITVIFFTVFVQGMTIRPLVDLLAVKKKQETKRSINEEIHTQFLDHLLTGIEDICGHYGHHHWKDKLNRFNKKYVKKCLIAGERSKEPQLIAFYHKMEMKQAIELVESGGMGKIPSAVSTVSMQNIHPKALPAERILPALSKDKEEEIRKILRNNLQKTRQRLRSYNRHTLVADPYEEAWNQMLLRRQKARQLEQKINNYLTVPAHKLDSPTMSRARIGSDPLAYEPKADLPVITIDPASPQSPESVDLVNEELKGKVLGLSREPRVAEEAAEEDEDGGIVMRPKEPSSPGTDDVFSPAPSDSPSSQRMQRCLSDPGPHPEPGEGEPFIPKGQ
Text: Inhibition des Na⁺/H⁺-Exchangers von Kaninchenerythrocyten
Weiße Neuseeland-Kaninchen (Ivanovas) erhielten eine Standard-Diät mit 2% Cholesterin für sechs Wochen, um den Na⁺/H⁺-Austausch zu aktivieren und so den Na⁺-Influx in die Erythrocyten via Na⁺/H⁺-Austausch flammenphotometrisch bestimmen zu können. Das Blut wurde den Ohrarterien entnommen und durch 25 IE Kalium-Heparin ungerinnbar gemacht. Ein Teil jeder Probe wurde zur Doppelbestimmung des Hämatokrits durch Zentrifugieren benutzt. Aliquots von jeweils 100 µl dienten zur Messung des Na⁺-Ausgangsgehalts der Erythrocyten.
Um den Amilorid-sensitiven Natrium-Influx zu bestimmen, wurden 100 µl jeder Blutprobe in jeweils 5 ml eines hyperosmolaren Salz-Sucrose-Mediums (mmol/l: 140 NaCl, 3 KCl, 150 Sucrose, 0,1 Ouabain, 20 Tris-hydroxymethylaminomethan) bei pH 7,4 und 37°C inkubiert. Die Erythrocyten wurden danach dreimal mit eiskalter MgCl₂-Ouabain-Lösung (mmol/l: 112 MgCl₂, 0,1 Ouabain) gewaschen und in 2,0 ml destilliertem Wasser hämolysiert. Der intrazelluläre Natriumgehalt wurde flammenphotometrisch bestimmt.
Der Na⁺ -Nettoinflux wurde aus der Differenz zwischen Natrium-Ausgangswerten und dem Natriumgehalt der Erythrocyten nach Inkubation errechnet. Der Amilorid-hemmbare Natrium-Influx ergab sich aus der Differenz des Natriumgehalts der Erythrocyten nach Inkubation mit und ohne Amilorid 3 x 10⁻⁴ mol/l. Auf diese Weise wurde auch bei den erfindungsgemäßen Verbindungen verfahren.

| Structure (SMILES) | IC50 (Na⁺/H⁺-Exchanger) [nM] | künstlich ausgelöstes Kammerflimmern (Rattenherzen) |
| --- | --- | --- |
| NC(N)=NC(=O)c1nc(Cl)c(N)nc1N [Amilorid] | – | völlig unterdrückt |
| Cn1c(C(=O)N=C(N)N)c(Cl)c2cc(Cl)ccc21 [Beispiel 69, 3,5-Dichlor-1-methyl-2-indolylcarbonyl-guanidin-hydrochlorid] | 50 | – |
| Cn1c(C(=O)N=C(N)N)c(Cl)c2cc(F)ccc21 [Beispiel 86, 3-Chlor-5-fluor-1-methylindolyl-2-carbonsäureguanidid Hydrochlorid] | 30 | – |
| CN1c2ccccc2CC1C(=O)N=C(N)N (stereo not shown) [Beispiel 104, 1-Methylindolin-2-carbonsäure-guanidid-hydrochlorid] | 200 | – |
| CN1c2ccc(F)cc2CC1C(=O)N=C(N)N (stereo not shown) [Beispiel 106, 5-Fluor-1-methylindolin-2-carbonsäureguanidid Hydrochlorid] | 50 | – |
| CCN(c1nc(N)c(C(=O)N=C(N)N)nc1Cl)C(C)C [Ethylisopropylamilorid] | – | Noch potenter als Amilorid |

Continued, in another order:

| IC50 (Na⁺/H⁺-Exchanger) [nM] | Structure (SMILES) | künstlich ausgelöstes Kammerflimmern (Rattenherzen) |
| --- | --- | --- |
| 40 | CCn1c(C(=O)N=C(N)N)cc2cc(Cl)ccc21 [Beispiel 52, 5-Chlor-1-ethyl-2-indolylcarbonyl-guanidin-hydrochlorid] | – |
| 50 | CCCn1c(C(=O)N=C(N)N)cc2cc(Cl)ccc21 [Beispiel 53, 5-Chlor-1-propyl-2-indolylcarbonyl-guanidin-hydrochlorid] | – |
| 200 | CCCCn1c(C(=O)N=C(N)N)cc2cc(Cl)ccc21 [Beispiel 54, 5-Chlor-1-butyl-2-indolylcarbonyl-guanidin-hydrochlorid] | – |
| 300 | NC(N)=NC(=O)c1cc2cc(Cl)ccc2n1Cc1ccncc1 [Beispiel 61, 5-Chlor-1-(4-picolyl)-2-indolylcarbonyl-guanidin-dihydrochlorid] | – |

From patent publication EP0639573A1, “Benzocondensed five membered heterocycles, process of their preparation, their use as drug, as diagnostic means and pharmaceuticals containing it” (HOECHST AKTIENGESELLSCHAFT, priority 1993, dated 1995)
